# Measurements: patent US20020049157A1, “Use of proteasome inhibitors for treating cancer, inflammation, autoimmune disease, graft rejection and septic shock” (priority 1998, published 2002)
# Experiments:
# IL-2 = IL-2 production by PBMC after PHA stimulation; type: cell-based, human; conditions: 2 to 4 days after PHA; LAC 10 μM added at the beginning; data not shown
# Method: In the four systems of T and B cell activation and proliferation studied in the first section, the growth promoting activity of IL-2 is indirectly (for stimulation by PHA, anti-CD3, and anti-CD28 plus ionomycin), or directly (for SAC plus IL-2) involved. We then investigated the role of proteasome in IL-2Rα expression and IL-2 production. […] Under the experimental condition used, the viability of the LAC-treated cell was reasonable (>80% at 40 h) as described in the previous section as LAC was added only once initially. Moreover, no consistent change of IL-2 production in LAC-treated cells was a functional indication that the cell viability was reasonable and is not of a concern in interpreting the data. The results from this section indicate that IL-2Rα upregulation but not IL-2 production is proteasome-dependent, and the suppressed IL-2Rα expression likely contributes to LAC's inhibitory effect on T cells activation and proliferation. The Proteasome Activity is Critically Required Between G0 and G1/S Boundary in T Cells
# [1] = aqueous solutions of high pH; cited from earlier work
# Peripheral blood T cells = experiment: Mitogen-stimulated T cell proliferation (3H-thymidine uptake); type: cell-based, human; conditions: for inhibition of subsequent PHA-stimulated proliferation after preincubation and wash: 10 μM LAC; for inhibition of T cell proliferation (3H-thymidine uptake): LAC added at 0 h
# Method: Lymphocytes were stimulated with various mitogens as indicated, and LAC at different concentrations was added at the beginning of the cultures. The cells were pulsed with 3H-thymidine between 48 h and 64 h. Samples were in triplicates. All the experiments were performed at least three times and similar results were obtained. Representative results are shown.
# A: Peripheral blood T cells stimulated with PHA (2 μg/ml).
# B: Peripheral blood T cells stimulated with OKT3 (50 ng/ml).
# C: Peripheral blood T cells stimulated with anti-CD28 (50 ng/ml) plus ionomycin (1 μg/ml).
# A. The rapid effect of LAC Peripheral blood T cells were pretreated with 10 μM LAC in culture medium or in culture medium alone for 3 h or 16 h. The cells were then washed and recultured in the presence of 2 μg/ml PHA for 64 h. The cells were pulsed with ^3H-thymidine for 16 h before they were harvested at 64 h. Samples were in triplicates.
# C and D. LAC blocks the S phase entry of the mitogen-stimulated peripheral blood T cells Peripheral blood T cells were stimulated with PHA (2 μ/ml) in the absence or presence of LAC (10 μM, added at 0 h, 16 h, 24 h, or 40 h, as indicated in the bottom of the panels). For the flow cytometry analysis of the cell cycle progress, the cells were harvested at 0 h, 1 6 h, 40 h and 64 h as indicated on the top of the panels (FIG. 6C). For ^3H-thymidine uptake, the triplicated cell samples were pulsed at 48 h and harvested at 64 h (FIG. 6D).
# The role of proteasome in T cell activation and proliferation was first examined in PBMC, using the proteasome-specific inhibitor LAC. The PBMC were activated with various stimulants. LAC was added to the cells in the beginning of the culture (0 h) along with the stimulants. ^3H-thymidine uptake between 48 h and 64 h of 64 h cultures was used as a parameter for cell proliferation. […] Rather, it likely affects certain downstream events governing a more general process(es) in lymphocyte activation and proliferation.
# We next investigated how fast and how long LAC could exert its effects on the lymphocytes, since this information is necessary to assess the requirement of the proteasome activity for events related to cell activation and proliferation. The cells were then washed and recultured in the presence of PHA. The thymidine uptake was measured 3 days later.
# Peripheral blood mononuclear cells (PBMC) and tonsillar T cells were prepared as described before (Luo et al., 1992, Transplantation 53:1071; Luo et al., 1993, Clin. & Exp. Immunol. 94:371). The cells were cultured in RPMI 1640 supplemented with 10% FCS, L-glutamine and antibiotics. ^3H-thymidine uptake was carried out as described previously (Luo et al., 1992, supra; Luo et al., 1993, supra).
# Cyclin E-associated CDK = experiment: Immunoprecipitation kinase assay, Cyclin E-associated CDK; type: cell-based, human; conditions: PHA-activated T cells; LAC 10 μM added once at 0 h
# Method: (§1) Tonsillar T cells were activated with PHA (2 μg/ml) for a period as indicated in each graph. LAC (10 μM) was added once at 0 h. The cells were harvested at 16 h, 24 h, or 40 h as indicated. An equal amount of lysate protein ([…]) was precipitated with rabbit anti-CDK4, anti-CDK2 or anti-Cyclin E antisera (2.5 μg Ab/sample). The immune complexes were assayed for their kinase activities using histone H1 as a substrate. (A) CDK4 kinase activity. (B) CDK2 kinase activity. (C) Cyclin E-associated CDK activity. The membrane in (C) was subsequently hybridized with anti-Cyclin E (1 μg/ml) followed by ^125I-protein A for the evaluation of the protein level of Cyclin E.
# Since at the late G1 phase Cyclin E is the predominant partner of CDK2 (Sherr, 1993, Cell 73:1059), we next examined the Cyclin E-associated CDK activity.
# Lymphocytes were lysed by a lysis buffer as used in the immunoblotting (Chen et al., 1996, supra), and cleared lysates were quantitated for their protein content. For immunoprecipitation, 50 μl of rabbit antisera against CDK2, CDK4 or Cyclin E were added to the lysates equivalent to 20 or 40 μg protein depending on the experiment. […] The proteins were then transferred to PVDF membranes and the signals were detected by autoradiography.
# CDK2 = experiment: Immunoprecipitation kinase assay, CDK2; type: cell-based, human; conditions: PHA-activated T cells; LAC 10 μM added once at 0 h; at 16 h and more so at 40 h
# Method: as §1
# Therefore, the proteasome activity during the early activation stage (0 h-16 h) is essential for the activation of the kinase at the G1 phase and early S phase. The unchanged CDK4 activity in the LAC-treated cells at 40 h served as an internal control for the repressed CDK2 activity and indicating the latter was not due to the viability problem.
# Lymphocytes were lysed by a lysis buffer as used in the immunoblotting (Chen et al., 1996, supra), and cleared lysates were quantitated for their protein content. […] The proteins were then transferred to PVDF membranes and the signals were detected by autoradiography.
smiles,measurement,setting,value
"CC(=O)N[C@@H](CSC(=O)[C@]1([C@@H](O)C(C)C)NC(=O)[C@H](C)[C@@H]1O)C(=O)O [LAC, lactacystin]",IL-2 production,IL-2,no consistent difference was found
same,stability in aqueous solutions,[1],unstable
same,inhibition of subsequent PHA-stimulated proliferation after preincubation and wash,Peripheral blood T cells; 3 h preincubation,significant inhibition
same,inhibition of subsequent PHA-stimulated proliferation after preincubation and wash,"Peripheral blood T cells; 16 h preincubation, compared with 3 h",more effective
same,inhibition of T cell proliferation (3H-thymidine uptake),Peripheral blood T cells; Ca++ ionophore plus cross-linking of CD28,strongly and dose-dependently inhibited
same,extent of inhibition of T cell proliferation,"Peripheral blood T cells; LAC at 5 μM, PHA, anti-CD3, anti-CD28 plus ionomycin systems",near-to-maximal inhibition
same,inhibition of 3H-thymidine uptake,"Peripheral blood T cells; PHA, LAC 10 μM added as late as 40 h, pulsed 48 h, harvested 64 h",strongly inhibitory
same,inhibition of T cell proliferation (3H-thymidine uptake),Peripheral blood T cells; crosslinking TCR with anti-CD3,strongly and dose-dependently inhibited
same,inhibition of T cell proliferation (3H-thymidine uptake),"Peripheral blood T cells; induced by PHA, uptake 48-64 h",strongly and dose-dependently inhibited
same,Cyclin E-associated kinase activity,Cyclin E-associated CDK,almost completely inhibited
same,CDK2 kinase activity,CDK2,significantly inhibited
